We go through 1 molecule from paper PMC5693111, “Small molecule Photoregulin3 prevents retinal degeneration in the Rho^P23H mouse model of retinitis pigmentosa” (eLife, 2017).

This assay concerns the target T1, NR2E3 (Homo sapiens, UniProt Q9Y5X4).
T1 construct: aa 90–410 (expressed as His8-MBP-TEV fusion, tag removed)
The assay is described as follows: isothermal titration calorimetry ([…] PR3 injected into […] NR2E3; one site model, qualitative). Type of assay: binding. A general note: ITC needs no label: the signal is the heat of the interaction.

What is called Kd is the free concentration of one partner at which half of the binding sites on the other are occupied at equilibrium, for simple one-to-one binding. A high value points to lower affinity.

T1 sequence (Q9Y5X4 90-410): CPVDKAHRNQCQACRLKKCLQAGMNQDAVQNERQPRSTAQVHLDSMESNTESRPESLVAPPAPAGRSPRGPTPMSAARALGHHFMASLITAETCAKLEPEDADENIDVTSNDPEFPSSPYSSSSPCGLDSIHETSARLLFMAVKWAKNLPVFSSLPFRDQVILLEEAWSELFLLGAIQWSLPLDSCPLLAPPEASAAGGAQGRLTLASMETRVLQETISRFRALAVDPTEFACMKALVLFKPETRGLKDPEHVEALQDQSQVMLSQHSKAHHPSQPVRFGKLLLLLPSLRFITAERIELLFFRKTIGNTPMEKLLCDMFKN

The molecule `COc1cc2nc(CN3CC=C(c4ccccc4)CC3)nc(O)c2cc1OC` [PR3, Photoregulin3] registered a dissociation constant (Kd) of approximately 67 µM.
